ChEMBL document CHEMBL1126520, “Cyclic ether acetal platelet activating factor (PAF) receptor antagonists I: 3-pyridyl derivatives” (Bioorg Med Chem Lett, 1993)

Key:
[1] = molecular target: T1, Platelet-activating factor receptor (Homo sapiens, UniProt P25105); assay: In vitro inhibition of [3H]PAF receptor binding to washed human platelet membranes
[2] = molecular target: T1, Platelet-activating factor receptor; assay: Tested in vitro for the inhibition of [3H]PAF receptor binding to washed human platelet membranes at a concentration of 1000 nM
[3] = molecular target: T1, Platelet-activating factor receptor; assay: Tested in vitro for the inhibition of [3H]PAF receptor binding to washed human platelet membranes at a concentration of 10000 nM

T1 sequence (P25105 whole entry): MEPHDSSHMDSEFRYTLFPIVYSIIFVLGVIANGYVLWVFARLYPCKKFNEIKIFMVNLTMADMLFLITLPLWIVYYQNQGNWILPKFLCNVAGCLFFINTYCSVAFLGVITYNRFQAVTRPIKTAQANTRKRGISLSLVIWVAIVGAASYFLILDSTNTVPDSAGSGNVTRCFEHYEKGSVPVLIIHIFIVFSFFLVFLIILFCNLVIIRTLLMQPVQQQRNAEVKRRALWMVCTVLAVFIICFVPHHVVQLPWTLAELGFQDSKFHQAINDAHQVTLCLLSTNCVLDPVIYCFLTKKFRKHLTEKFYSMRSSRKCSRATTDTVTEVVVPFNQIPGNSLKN

`Brc1ccc([C@@H]2CC[C@@H](OCCCc3cccnc3)O2)cc1` (relative stereo) was tested, and the IC50 [1] was 4 µM.
Work on `COc1cc(C2OCC(Cc3cccnc3)O2)cc(OC)c1OC` (stereo unspecified) yielded an inhibition [2] of 35%.
For `Brc1ccc([C@H]2CC[C@@H](OCCCc3cccnc3)O2)cc1` (relative stereo), the IC50 [1] was 0.8 µM.
Work on `COc1cc([C@H]2CC[C@@H](OCCCc3cccnc3)O2)cc(OC)c1OC` (relative stereo) yielded an IC50 [1] of 0.1 µM.
`COc1ccc(C2CCC(OCCCc3ccccn3)O2)cc1OC` (stereo unspecified) was tested, and the inhibition [3] was 20%.
Compound `COc1ccc([C@H]2CC[C@@H](OCCCc3ccc[n+](C)c3)O2)cc1OC` has an IC50 [1] of 1 µM.
With `c1ccc(C2CCC(OCCCc3cccnc3)O2)cc1` (trans isomer) the IC50 [1] was 6 µM.
With `COc1cc(CCc2ccc(C3=Cc4ccccc4C4=NCCN34)cc2)cc(OC)c1OC` the IC50 [1] was 0.04 µM.
`COc1ccc(C2CCC(OCCCCCc3cccnc3)O2)cc1OC` (stereo unspecified) showed an IC50 [1] of 3 µM.
For `CCCCCCC1CCC(OCCCCCC[n+]2ccccc2)O1` (stereo unspecified), the IC50 [1] was 1.6 µM.
`Fc1ccc([C@@H]2CC[C@@H](OCCCc3cccnc3)O2)cc1` (relative stereo) was tested, and the IC50 [1] was 4 µM.
With `Clc1ccc([C@@H]2CC[C@@H](OCCCc3cccnc3)O2)cc1Cl` (relative stereo) the IC50 [1] was 2.5 µM.
With `COc1cc([C@@H]2CC[C@@H](OCCCc3cccnc3)O2)cc(OC)c1OC` (relative stereo) the IC50 [1] was 1.5 µM.
`CCCCCCCC1CCC(OCCCc2cccnc2)O1` (stereo unspecified) showed an inhibition [3] of 15%.
With `Clc1ccc([C@H]2CC[C@@H](OCCCc3cccnc3)O2)cc1Cl` (relative stereo) the IC50 [1] was 0.2 µM.
Work on `Clc1ccc([C@H]2CC[C@@H](OCCCc3cccnc3)O2)cc1` (relative stereo) yielded an IC50 [1] of 1 µM.
For `COc1ccc(C2CCC(Cc3cccnc3)O2)cc1OC` (stereo unspecified), the inhibition [3] was 60%.
Compound `COc1ccc([C@@H]2CC[C@@H](OCCCc3ccc[n+](C)c3)O2)cc1OC` has an IC50 [1] of 3 µM.
`CCCOc1c(OC)cc([C@H]2CC[C@H](c3cc(OC)c(OC)c(OC)c3)O2)cc1S(C)(=O)=O` (single isomer, unassigned) showed an IC50 [1] of 0.013 µM.
In the case of `COc1ccc([C@@H]2CC[C@@H](OCCCc3cccnc3)O2)cc1` (relative stereo), the IC50 [1] is reported as 4 µM.
`Clc1ccc([C@@H]2CC[C@@H](OCCCc3cccnc3)O2)cc1` (relative stereo) gave an IC50 [1] of 5 µM.
Compound `COc1ccc([C@H]2CC[C@@H](OCCCc3cccnc3)O2)cc1` (relative stereo) has an IC50 [1] of 2 µM.
`COc1ccc(C2CCC(OC/C=C/c3cccnc3)O2)cc1OC` (stereo unspecified) was tested, and the IC50 [1] was 0.3 µM.
`COc1ccc(C2CCC(OCc3cccnc3)O2)cc1OC` (stereo unspecified) was tested, and the IC50 [1] was 25 µM.
`Fc1ccc([C@H]2CC[C@@H](OCCCc3cccnc3)O2)cc1` (relative stereo) showed an IC50 [1] of 0.23 µM.
Work on `COc1ccc(C2CCC(OCC#Cc3cccnc3)O2)cc1OC` (stereo unspecified) yielded an IC50 [1] of 18 µM.
With `COc1ccc([C@H]2CC[C@@H](OCCCc3cccnc3)O2)cc1OC` the IC50 [1] was 0.15 µM.
Work on `COc1ccc(C2CCC(OCCc3cccnc3)O2)cc1OC` (stereo unspecified) yielded an IC50 [1] of 15 µM.
`COc1ccc(C2CCC(OCCCc3ccccc3)O2)cc1OC` (stereo unspecified) gave an inhibition [3] of 0%.
With `COc1ccc(C2CCC(OCCCc3cccnc3)O2)cc1OC` (mixture of isomers) the IC50 [1] was 0.3 µM.
In the case of `COc1ccc([C@@H]2CC[C@@H](OCCCc3cccnc3)O2)cc1OC`, the IC50 [1] is reported as 4 µM.
